Assay results: patent US8962641B2, “Pyrimidine-substituted pyrrolidine derivatives, pharmaceutical compositions and uses thereof” (Boehringer Ingelheim International GmbH, priority 2013, dated 2015)

Each compound was assayed against human ACC2 (Homo sapiens (Human), UniProt O00763) (assay: ACC2 assay (spectrophotometric 384 well assay, NADH-linked kinetic method)). Settings: hACC2 construct lacking 128 N-terminal amino acids; coupled lactate dehydrogenase/pyruvate kinase reaction, 340 nm, 25° C.
Sequence of human ACC2 (O00763 129-2458): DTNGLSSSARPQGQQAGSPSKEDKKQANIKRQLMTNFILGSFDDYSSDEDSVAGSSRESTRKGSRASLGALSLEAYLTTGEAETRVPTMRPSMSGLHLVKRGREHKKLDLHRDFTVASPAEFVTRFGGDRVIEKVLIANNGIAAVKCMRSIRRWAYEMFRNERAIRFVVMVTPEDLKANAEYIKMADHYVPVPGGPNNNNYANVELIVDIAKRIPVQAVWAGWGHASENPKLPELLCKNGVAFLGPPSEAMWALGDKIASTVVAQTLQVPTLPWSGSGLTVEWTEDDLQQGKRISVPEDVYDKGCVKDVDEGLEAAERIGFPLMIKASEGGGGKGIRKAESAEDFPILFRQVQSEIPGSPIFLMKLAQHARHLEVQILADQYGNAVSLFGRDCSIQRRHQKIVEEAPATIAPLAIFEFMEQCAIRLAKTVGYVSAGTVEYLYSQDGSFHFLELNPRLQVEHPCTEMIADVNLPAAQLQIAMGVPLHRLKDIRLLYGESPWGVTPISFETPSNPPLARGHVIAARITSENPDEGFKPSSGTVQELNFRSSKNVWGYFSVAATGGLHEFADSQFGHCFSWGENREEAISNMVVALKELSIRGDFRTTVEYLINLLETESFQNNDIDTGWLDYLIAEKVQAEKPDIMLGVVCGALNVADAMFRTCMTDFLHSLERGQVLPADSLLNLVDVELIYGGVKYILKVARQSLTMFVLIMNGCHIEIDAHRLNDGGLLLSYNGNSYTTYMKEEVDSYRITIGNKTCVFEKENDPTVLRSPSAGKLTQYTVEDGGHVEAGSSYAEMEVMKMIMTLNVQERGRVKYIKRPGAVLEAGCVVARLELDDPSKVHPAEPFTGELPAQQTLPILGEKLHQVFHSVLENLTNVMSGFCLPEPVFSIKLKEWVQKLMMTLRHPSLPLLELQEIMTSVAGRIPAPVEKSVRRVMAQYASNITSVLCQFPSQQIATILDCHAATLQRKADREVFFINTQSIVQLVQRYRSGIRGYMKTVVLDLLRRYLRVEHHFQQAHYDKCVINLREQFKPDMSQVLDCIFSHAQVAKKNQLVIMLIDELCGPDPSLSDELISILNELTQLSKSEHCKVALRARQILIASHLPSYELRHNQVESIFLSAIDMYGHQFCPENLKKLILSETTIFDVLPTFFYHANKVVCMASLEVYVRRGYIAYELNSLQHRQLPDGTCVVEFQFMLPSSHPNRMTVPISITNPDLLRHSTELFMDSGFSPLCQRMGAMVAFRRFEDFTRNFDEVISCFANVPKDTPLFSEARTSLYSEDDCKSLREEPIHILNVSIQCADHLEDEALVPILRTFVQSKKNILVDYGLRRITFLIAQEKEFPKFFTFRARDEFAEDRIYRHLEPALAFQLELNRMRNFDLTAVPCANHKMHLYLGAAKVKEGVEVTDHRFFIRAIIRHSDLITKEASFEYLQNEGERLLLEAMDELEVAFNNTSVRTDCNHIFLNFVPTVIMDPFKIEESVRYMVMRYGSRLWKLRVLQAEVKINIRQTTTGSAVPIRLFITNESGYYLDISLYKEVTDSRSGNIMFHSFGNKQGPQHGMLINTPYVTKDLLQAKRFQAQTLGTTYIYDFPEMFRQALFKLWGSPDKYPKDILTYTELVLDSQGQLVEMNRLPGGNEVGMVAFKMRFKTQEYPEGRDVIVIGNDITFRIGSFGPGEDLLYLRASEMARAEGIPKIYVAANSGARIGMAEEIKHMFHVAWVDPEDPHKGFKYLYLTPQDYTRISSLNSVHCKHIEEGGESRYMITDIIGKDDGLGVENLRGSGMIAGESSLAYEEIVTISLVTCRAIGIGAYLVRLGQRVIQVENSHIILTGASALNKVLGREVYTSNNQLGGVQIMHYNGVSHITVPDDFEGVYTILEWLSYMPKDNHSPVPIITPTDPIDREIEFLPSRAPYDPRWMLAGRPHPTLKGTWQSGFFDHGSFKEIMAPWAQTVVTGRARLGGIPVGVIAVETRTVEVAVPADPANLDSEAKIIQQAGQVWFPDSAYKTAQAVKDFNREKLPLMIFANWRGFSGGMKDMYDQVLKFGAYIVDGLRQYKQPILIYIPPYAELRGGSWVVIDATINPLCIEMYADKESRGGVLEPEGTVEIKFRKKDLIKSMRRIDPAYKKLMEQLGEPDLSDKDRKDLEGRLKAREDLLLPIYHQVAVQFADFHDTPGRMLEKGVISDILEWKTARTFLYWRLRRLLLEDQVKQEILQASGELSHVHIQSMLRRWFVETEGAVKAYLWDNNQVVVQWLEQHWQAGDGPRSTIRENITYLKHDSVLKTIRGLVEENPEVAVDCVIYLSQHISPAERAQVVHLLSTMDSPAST
Assay type: biochemical
How it was run: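 Baculovirus/insect-cell human ACC2, anion-exchange purified; ADP formation coupled to pyruvate kinase/lactate dehydrogenase, NADH loss followed at 340 nm, 25° C, 15 min. Final 200 μM NADH and acetyl-CoA, 500 uM ATP; vehicle and no-acetyl-CoA wells set 100% and 0%.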

Row | SMILES | IC50 [nM]
1 | CC(=O)N[C@@H](C)c1ccc(O[C@@H]2CCN(c3ccnc(N(C)C(C)C)n3)C2)cc1 [Example 8.25] | 294
2 | CCN(CC)c1ncc(F)c(N2CC[C@@H](Oc3ccc([C@H](C)NC(C)=O)cc3)C2)n1 [Example 8.26] | 69
3 | CC(=O)N[C@@H](C)c1ccc(O[C@@H]2CCN(c3nc(N(C)CC(F)F)ncc3F)C2)cc1 [Example 8.27] | 65
4 | CC(=O)N[C@@H](C)c1ccc(O[C@@H]2CCN(c3nc(N(C)CC(C)(C)O)ncc3F)C2)cc1 [Example 8.28] | 809
5 | CC(=O)N[C@@H](C)c1ccc(O[C@@H]2CCN(c3nc(N(C)CC4CCOC4)ncc3F)C2)cc1 (stereo partly shown) [Example 8.29] | 150
6 | CC(=O)N[C@@H](C)c1ccc(O[C@@H]2CCN(c3nc(N(C)CC(F)(F)F)ncc3F)C2)cc1 [Example 8.30] | 184
7 | CCN(C)c1ncc(F)c(N2CC[C@@H](Oc3ccc([C@H](C)NC(C)=O)cc3)C2)n1 [Example 8.31] | 95
8 | CC(=O)N[C@@H](C)c1ccc(O[C@@H]2CCN(c3nc(N(C)CCC(C)(C)O)ncc3F)C2)cc1 [Example 8.32] | 1070
9 | CC(=O)N[C@@H](C)c1ccc(O[C@@H]2CCN(c3nc(N(C)C4CCCC4)ncc3C#N)C2)cc1 [Example 8.33] | 1060
10 | CCCN(C)c1ncc(C#N)c(N2CC[C@@H](Oc3ccc([C@H](C)NC(C)=O)cc3)C2)n1 [Example 8.34] | 1080
11 | CCN(CC)c1ncc(C#N)c(N2CC[C@@H](Oc3ccc([C@H](C)NC(C)=O)cc3)C2)n1 [Example 8.35] | 824
12 | CC(=O)N[C@@H](C)c1ccc(O[C@@H]2CCN(c3nc(NC4(C)CCCC4)ncc3F)C2)cc1 [Example 8.36] | 539
13 | CC(=O)N[C@@H](C)c1ccc(O[C@@H]2CCN(c3ccnc(N(C)CCC#N)n3)C2)cc1 [Example 8.37] | 349
14 | COc1ccc(N(C)c2nccc(N3CC[C@@H](Oc4ccc([C@H](C)NC(C)=O)cc4)C3)n2)cc1 [Example 8.38] | 1220
15 | COc1cccc(N(C)c2nccc(N3CC[C@@H](Oc4ccc([C@H](C)NC(C)=O)cc4)C3)n2)c1 [Example 8.39] | 452
16 | CC(=O)N[C@@H](C)c1ccc(O[C@@H]2CCN(c3ccnc(N4CCC4)n3)C2)cc1 [Example 8.40] | 628
17 | CC(=O)N[C@@H](C)c1ccc(O[C@@H]2CCN(c3ccnc(N(C)CC4CCOC4)n3)C2)cc1 (stereo partly shown) [Example 8.41] | 286
18 | COC(CN(C)c1nccc(N2CC[C@@H](Oc3ccc([C@H](C)NC(C)=O)cc3)C2)n1)OC [Example 8.42] | 632
19 | CC(=O)N[C@@H](C)c1ccc(O[C@@H]2CCN(c3ccnc(N4CCC(F)(F)C4)n3)C2)cc1 [Example 8.43] | 79
20 | CC(=O)N[C@@H](C)c1ccc(O[C@@H]2CCN(c3ccnc(N(C)CC(F)F)n3)C2)cc1 [Example 8.44] | 55
21 | CC(=O)N[C@@H](C)c1ccc(O[C@@H]2CCN(c3ccnc(N4CC(F)(F)C4)n3)C2)cc1 [Example 8.45] | 192

Row | SMILES | IC50 [nM]
22 | CC(=O)N[C@@H](C)c1ccc(O[C@@H]2CCN(c3ccnc(N(C)CC(F)(F)F)n3)C2)cc1 [Example 8.46] | 89
23 | CCCN(C)c1ncc(Cl)c(N2CC[C@@H](Oc3ccc([C@H](C)NC(C)=O)cc3)C2)n1 [Example 8.47] | 65
24 | CCCN(C)c1ncc(C)c(N2CC[C@@H](Oc3ccc([C@H](C)NC(C)=O)cc3)C2)n1 [Example 8.48] | 312
25 | COCCN(C)c1nccc(N2CC[C@@H](Oc3ccc([C@H](C)NC(C)=O)cc3)C2)n1 [Example 8.49] | 219
26 | CC(=O)N[C@@H](C)c1ccc(O[C@@H]2CCN(c3nc(N4CCCC4)ncc3Cl)C2)cc1 [Example 8.50] | 157
27 | CC(=O)N[C@@H](C)c1ccc(O[C@@H]2CCN(c3nc(N(C)C)ncc3Cl)C2)cc1 [Example 8.51] | 124
28 | CC(=O)N[C@@H](C)c1ccc(O[C@@H]2CCN(c3nc(N(C)CC4CCOC4)ncc3C)C2)cc1 (stereo partly shown) [Example 8.52] | 905
29 | CCN(C)c1ncc(C)c(N2CC[C@@H](Oc3ccc([C@H](C)NC(C)=O)cc3)C2)n1 [Example 8.53] | 452
30 | CC(=O)N[C@@H](C)c1ccc(O[C@@H]2CCN(c3nc(N(C)CC4CCOC4)ncc3Cl)C2)cc1 (stereo partly shown) [Example 8.54] | 125
31 | CCCNc1ncc(Cl)c(N2CC[C@@H](Oc3ccc([C@H](C)NC(C)=O)cc3)C2)n1 [Example 8.55] | 987
32 | CCN(C)c1ncc(Cl)c(N2CC[C@@H](Oc3ccc([C@H](C)NC(C)=O)cc3)C2)n1 [Example 8.56] | 60
33 | CCN(C)c1ncc(Br)c(N2CC[C@@H](Oc3ccc([C@H](C)NC(C)=O)cc3)C2)n1 [Example 8.57] | 1000
34 | CC(=O)N[C@@H](C)c1ccc(O[C@@H]2CCN(c3nc(N(C)C)ncc3Br)C2)cc1 [Example 8.58] | 484
35 | CC(=O)N[C@@H](C)c1ccc(O[C@@H]2CCN(c3nc(N4CCCC4)ncc3Br)C2)cc1 [Example 8.59] | 425
36 | CCN(CC)c1ncc(Cl)c(N2CC[C@@H](Oc3ccc([C@H](C)NC(C)=O)cc3)C2)n1 [Example 8.60] | 59
37 | CC(=O)N[C@@H](C)c1ccc(O[C@@H]2CCN(c3nc(N(C)CC4CCOC4)ncc3Br)C2)cc1 (stereo partly shown) [Example 8.61] | 245
38 | CCCN(C)c1ncc(Br)c(N2CC[C@@H](Oc3ccc([C@H](C)NC(C)=O)cc3)C2)n1 [Example 8.62] | 184
39 | CC(=O)N[C@@H](C)c1ccc(O[C@@H]2CCN(c3nc(N(C)C(C)C)ncc3F)C2)cc1 [Example 8.63] | 71
40 | CC(=O)N[C@@H](C)c1ccc(O[C@@H]2CCN(c3nc(N(C)CCC#N)ncc3F)C2)cc1 [Example 8.64] | 745
41 | [2H]C([2H])([2H])N(c1ncc(F)c(N2CC[C@@H](Oc3ccc([C@H](C)NC(C)=O)cc3)C2)n1)C([2H])([2H])[2H] [Example 8.65] | 80

Continued, values first:

Row | IC50 [nM] | SMILES
42 | 65 | COCCN(C)c1ncc(F)c(N2CC[C@@H](Oc3ccc([C@H](C)NC(C)=O)cc3)C2)n1 [Example 8.66]
43 | 130 | CC(=O)N[C@@H](C)c1ccc(O[C@@H]2CCN(c3nc(N4CC(F)(F)C4)ncc3F)C2)cc1 [Example 8.67]
44 | 50 | CC(=O)N[C@@H](C)c1ccc(O[C@@H]2CCN(c3nc(N(C)C4CC4)ncc3F)C2)cc1 [Example 8.68]
45 | 102 | CC(=O)N[C@@H](C)c1ccc(O[C@@H]2CCN(c3nc(N4CCC(F)(F)C4)ncc3F)C2)cc1 [Example 8.69]
46 | 59 | CC(=O)N[C@@H](C)c1ccc(O[C@@H]2CCN(c3nc(N4CCC(C)C4)ncc3F)C2)cc1 (stereo partly shown) [Example 8.70]
47 | 199 | CC(=O)N[C@@H](C)c1ccc(O[C@@H]2CCN(c3ccnc(N4CCOCC4)n3)C2)cc1 [Example 8.71]
48 | 167 | CCN(CCC#N)c1nccc(N2CC[C@@H](Oc3ccc([C@H](C)NC(C)=O)cc3)C2)n1 [Example 8.72]
49 | 1040 | CC(=O)N[C@@H](C)c1ccc(O[C@@H]2CCN(c3ccnc(N4CC(C)(C)C4)n3)C2)cc1 [Example 8.73]
50 | 115 | CC(=O)N[C@@H](C)c1ccc(O[C@@H]2CCN(c3ccnc(N4CC(F)(F)C(F)(F)C4)n3)C2)cc1 [Example 8.74]
51 | 358 | CC(=O)N[C@@H](C)c1ccc(O[C@@H]2CCN(c3ccnc(N4CC5(CCC5)C4)n3)C2)cc1 [Example 8.75]
52 | 155 | CC(=O)N[C@@H](C)c1ccc(O[C@@H]2CCN(c3ccnc(N4CCC5(CC5)C4)n3)C2)cc1 [Example 8.76]
53 | 489 | CC(=O)N[C@@H](C)c1ccc(O[C@@H]2CCN(c3ccnc(N4CCC(C#N)C4)n3)C2)cc1 (stereo partly shown) [Example 8.77]
54 | 260 | CC(=O)N[C@@H](C)c1ccc(O[C@@H]2CCN(c3ccnc(N4CCC(C)(C)C4)n3)C2)cc1 [Example 8.78]
55 | 37 | CCN(CC(F)(F)F)c1nccc(N2CC[C@@H](Oc3ccc([C@H](C)NC(C)=O)cc3)C2)n1 [Example 8.79]
56 | 955 | CC(=O)N[C@@H](C)c1ccc(O[C@@H]2CCN(c3nccc(N4CC5(CCC5)C4)n3)C2)cc1 [Example 8.80]
57 | 970 | CC(=O)N[C@@H](C)c1ccc(O[C@@H]2CCN(c3nccc(N4CCC(C)(C)C4)n3)C2)cc1 [Example 8.81]
58 | 165 | COCCN(CC(F)F)c1nccc(N2CC[C@@H](Oc3ccc([C@H](C)NC(C)=O)cc3)C2)n1 [Example 8.83]
59 | 212 | CC(=O)N[C@@H](C)c1ccc(O[C@@H]2CCN(c3ccnc(N4CCOC(C)C4)n3)C2)cc1 (stereo partly shown) [Example 8.84]
60 | 566 | CC(=O)N[C@@H](C)c1ccc(O[C@@H]2CCN(c3ccnc(N4C[C@@H](C)O[C@@H](C)C4)n3)C2)cc1 [Example 8.85]
61 | 670 | CC(=O)N[C@@H](C)c1ccc(O[C@@H]2CCN(c3ccnc(N4CCOCC4(C)C)n3)C2)cc1 [Example 8.86]
62 | 128 | CC(=O)N[C@@H](C)c1ccc(O[C@@H]2CCN(c3ccnc(N4[C@H](C)COC[C@H]4C)n3)C2)cc1 [Example 8.87]
63 | 130 | CC(=O)N[C@@H](C)c1ccc(O[C@@H]2CCN(c3ccnc(N4CCOC(C(F)(F)F)C4)n3)C2)cc1 (stereo partly shown) [Example 8.88]
64 | 293 | CC(=O)N[C@@H](C)c1ccc(O[C@@H]2CCN(c3ccnc(N4CCOC(C)(C)C4)n3)C2)cc1 [Example 8.89]
65 | 364 | CC(=O)N[C@@H](C)c1ccc(O[C@@H]2CCN(c3ccnc(N4[C@H](C)COC[C@@H]4C)n3)C2)cc1 [Example 8.90]
66 | 105 | CC(=O)N[C@@H](C)c1ccc(O[C@@H]2CCN(c3ccnc(N4CCSCC4)n3)C2)cc1 [Example 8.91]
67 | 100 | CC(=O)N[C@@H](C)c1ccc(O[C@@H]2CCN(c3ncnc(N(C)CC4CC4)c3F)C2)cc1 [Example 8.92]
68 | 440 | CC(=O)N[C@@H](C)c1ccc(O[C@@H]2CCN(c3ncnc(N(C)C)c3F)C2)cc1 [Example 8.93]
69 | 165 | CCN(C)c1ncnc(N2CC[C@@H](Oc3ccc([C@H](C)NC(C)=O)cc3)C2)c1F [Example 8.94]
70 | 79 | CCN(CC)c1ncnc(N2CC[C@@H](Oc3ccc([C@H](C)NC(C)=O)cc3)C2)c1F [Example 8.95]
